From paper PMC11249626, “Fluorophore-Labeled Pyrrolones Targeting the Intracellular Allosteric Binding Site of the Chemokine Receptor CCR1” (ACS Pharmacology & Translational Science, 2024)

Columns and labels:
CCR2 = biological target: T1, CCR2 (Homo sapiens, UniProt P41597); design: method as in PMID 35838163; details: membrane-based setup; cited from earlier work
T1 construct: host or cells: HEK293T, transient
T1 sequence (P41597 1-360 isoform P41597-2): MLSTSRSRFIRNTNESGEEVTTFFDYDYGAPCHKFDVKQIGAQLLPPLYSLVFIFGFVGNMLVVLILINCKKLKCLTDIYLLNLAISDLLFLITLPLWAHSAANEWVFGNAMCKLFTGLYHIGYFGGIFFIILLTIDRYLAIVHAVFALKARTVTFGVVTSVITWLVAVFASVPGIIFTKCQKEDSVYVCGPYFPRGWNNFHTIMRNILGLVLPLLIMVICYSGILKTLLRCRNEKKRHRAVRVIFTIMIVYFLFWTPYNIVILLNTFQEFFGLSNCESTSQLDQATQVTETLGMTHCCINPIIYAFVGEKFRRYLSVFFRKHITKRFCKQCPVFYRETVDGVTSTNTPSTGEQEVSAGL

CCR1 = biological target: T2, CCR1 (Homo sapiens, UniProt P32246); experiment: Membrane-based NanoBRET saturation binding assay, CCR1_Nluc membranes from HEK293T cells; design: Promega pNLF1-C (Nluc) #CCR010TN00; host or cells: HEK293T, transient (PEI); details: saturation binding of fluorescent ligand, read-out: KD (equilibrium, KD(eq.))
T2 sequence (P32246 1-355): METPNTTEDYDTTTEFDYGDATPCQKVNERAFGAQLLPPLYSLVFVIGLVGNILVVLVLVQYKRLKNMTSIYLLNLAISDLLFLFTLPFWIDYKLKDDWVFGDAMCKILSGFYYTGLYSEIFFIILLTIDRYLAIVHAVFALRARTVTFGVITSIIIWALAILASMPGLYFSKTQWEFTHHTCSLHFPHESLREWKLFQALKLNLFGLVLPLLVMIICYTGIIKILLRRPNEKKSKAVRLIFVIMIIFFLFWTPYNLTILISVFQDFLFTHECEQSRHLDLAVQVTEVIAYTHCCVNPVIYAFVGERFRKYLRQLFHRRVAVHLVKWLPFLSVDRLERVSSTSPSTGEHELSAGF
Source text: To evaluate the CCR1 affinity of previously reported (8–9) and new fluorescently labeled pyrrolones (11–12), we developed a NanoBRET-based binding assay (Figures 4A–H and S2A–J). To this end, we used a previously reported CCR1 construct (hereafter referred to as CCR1_Nluc) with a small and bright luciferase variant (nanoluciferase,[52] Nluc), fused to the intracellular C-terminus of CCR1 (Figures 4A and S2A).[47] […] This was expected, given the very low CCR2/CCR1 selectivity of the parental ligands 4 and 5 (Figure 1).[33] For further studies, we selected 12 due to its highest CCR1 affinity.
Cell culture: HEK293T cells were cultured as previously described.8 In brief, HEK293T cells (gift from Chair of Physiology, Prof. Dr. Alzheimer, FAU Erlangen-Nürnberg) were grown on 10 cm culture dishes at 37 °C and 5% CO2. As growth medium, Dulbecco's Modified Eagle Medium (DMEM)/F12 (Invitrogen) supplemented with 10% fetal bovine serum (FBS, Gibco™ Fetal Bovine Serum, qualified, Brazil), L-glutamine (final concentration: 2 mM; from Gibco™ L-glutamine 200 mM, 100X), penicillin (final concentration: 100 units/mL), and streptomycin (final concentration: 100 µg/mL; from Gibco™ Penicillin-Streptomycin 10,000 U/mL) was used. Cells were split every three to four days and regularly confirmed to be free of mycoplasma contamination using the luminescence-based MycoAlert Plus Kit (Lonza).
Transient transfection using polyethylenimine: For transfection, we used a previously published procedure.8 In brief, HEK293T cells were plated onto culture dishes (Ø 10 cm or Ø 15 cm) and grown to a confluence of approximately 50% at 37 °C and 5% CO2. The growth medium was renewed one-hour before transfection. The transfection mix was prepared, as described in the following. Solution A (0.4-2.2% total DNA (1-5.5 µg) in Gibco™ phosphate buffered saline, pH 7.4) and solution B (3% PEI (linear, 25 kDa, from Polysciences) solution prepared from a PEI stock solution (0.4 µg/µL) in PBS without MgCl2 and CaCl2) were mixed one to one, the resulting mixture was vortexed for 5 s and incubated for 30 min at room temperature. The pre-incubated transfection mix was added dropwise to the cells and cell cultivation was continued […]
Membrane preparation: Membranes were prepared as previously reported.8 In brief, membranes from HEK293T cells transiently expressing the respective GPCR were prepared as follows. The medium of the transfected cells was refreshed after 24 h before cells were harvested 48 h post-transfection. […]
Finally, the protein concentration was determined using the Lowry method.9 cDNA constructs: The CCR1-Nluc fusion construct (CCR1_Nluc) in pcDNA3.1 was generated as previously reported1 using the Gibson Assembly10 (New England Biolabs) method. […]

[1] = biological target: T3, human chemokine receptor CCR2 (Homo sapiens, UniProt P41597); experiment: Cellular NanoBiT β-arrestin recruitment assay; assay type: cell-based; details: n = 1; read-out: EC50, β-arrestin-2 recruitment, CCR2 activation
T3 construct: expressed in transfected cells; host or cells: HEK293T, transient
T3 sequence (P41597 whole entry): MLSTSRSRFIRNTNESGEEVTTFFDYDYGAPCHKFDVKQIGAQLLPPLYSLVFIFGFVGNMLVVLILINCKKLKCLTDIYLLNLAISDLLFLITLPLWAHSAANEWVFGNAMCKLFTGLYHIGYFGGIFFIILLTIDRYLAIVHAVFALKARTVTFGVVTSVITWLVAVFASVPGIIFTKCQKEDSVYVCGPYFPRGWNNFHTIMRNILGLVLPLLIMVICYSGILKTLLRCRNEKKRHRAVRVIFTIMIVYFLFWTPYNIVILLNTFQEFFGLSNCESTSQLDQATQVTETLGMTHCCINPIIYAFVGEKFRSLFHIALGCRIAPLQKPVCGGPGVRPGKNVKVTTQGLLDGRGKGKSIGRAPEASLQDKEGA
Protocol: (PerkinElmer, Groningen, NL).
(§1) Cellular NanoBiT β-arrestin recruitment assays: Chemokine-induced β-arrestin-2 recruitment to chemokine receptors CCR1 and CCR2 was monitored using a nanoluciferase complementation -based assay (NanoBiT, Promega). 17-19 5 x 10^6 HEK293T cells were plated in 10 cm dishes and cultured for 24 h before transfection with vectors encoding for the human chemokine receptor CCR1 or CCR2 C-terminally fused with SmBiT and β-arrestin 2 N-terminally fused with LgBiT. 24 h after transfection cells were harvested, distributed into white 96-well plates (5 × 10^4 cells per well) and incubated for 1 h at 37 °C with compound 23 at concentrations ranging from 10 nM to 10 µM. The endogenous chemokine ligand CCL5 (3 nM, for CCR1) or CCL2 (10 nM, for CCR2) was then added, and luminescence generated upon nanoluciferase complementation in the presence of coelenterazine H was measured with a Mithras LB940 luminometer (Berthold Technologies) for 20 min. […]
(§2) Finally, the top 5% of the identified hits were subsequently docked to a homology model of CCR1 (vide infra). After visual examination of the obtained binding modes 24 hit compounds were identified for further investigation .
(§3) Molecular docking: For the docking studies in the course of our virtual screening campaign, the CCR1 protein was […]
(§4) 27, 28 CCR1 structure was optimized using the Quickprep and structure preparation wizard in MOE 24 using CHARMM27 forcefield. The protein was saved in mol2 format and loaded in GOLD.25, 26 The amino acids defining the IABS were listed in a text file to define the docking cavity. 50 GA runs were performed for docking CCR2-RA-[R] (4-[R]) and SN_12 (43), with the generated solutions clustered based on their RMSD with the threshold set to 0.75 Å using the complete linkage method. Docking runs were performed using ChemScore. […]

[2] = biological target: T4, human chemokine receptor CCR1 (Homo sapiens, UniProt P32246); experiment: Cellular NanoBiT β-arrestin recruitment assay; assay type: cell-based; details: n = 3; read-out: EC50, β-arrestin-2 recruitment, CCR1 activation
T4 construct: expressed in transfected cells; host or cells: HEK293T, transient
T4 sequence (P32246 1-355): T2 sequence (P32246 1-355)
Protocol: as §1, with “CCR1” for “Cellular NanoBiT β-arrestin recruitment assays: Chemokine-induced β-arrestin-2 recruitment to chemokine receptors CCR1”
as §2, §3
27, 28 CCR1 structure was optimized using the Quickprep and structure preparation wizard in MOE 24 using CHARMM27 forcefield. The protein was saved in mol2 format and loaded in GOLD.25, 26 The amino acids defining the IABS were listed in a text file to define the docking cavity. 50 GA runs were performed for docking CCR2-RA-[R] (4-[R]) and SN_12 (43), with the generated solutions clustered based on their RMSD with the threshold set to 0.75 Å using the complete linkage method. Docking runs were performed using ChemScore. Flexibility of amino acids Lys63ICL1, Arg1313.50, Leu2406.36 and Arg3078.49 was taken in consideration in the docking runs, with conformational sampling of their side chains being done by the rotamer libraries implemented in GOLD.25, 26 For the docking studies with our ligand-linker conjugates (Figure S1), molecular ligand structures were geometry optimized as neutral molecules by means of Avogadro (Version 1.2.0)29 using the Universal Force Field (UFF) and the Steepest Decent Algorithm until convergence (ΔE = 0).
CCR113 was used for docking. The compounds were docked by means of AutoDock Vina 1.1.2.30, 31 An exhaustiveness value of 8 and a search space of 22 x 22 x 22 Å³ was applied around the unliganded intracellular allosteric binding site of CCR1. Twenty docking poses were generated for each ligand and inspected manually and according to the docking score.

[3] = biological target: T4, human chemokine receptor CCR1; experiment: Cellular NanoBiT miniGi recruitment assay; assay type: cell-based; details: n = 3; read-out: EC50, miniGi recruitment, CCR1 activation
Protocol: Technologies) for 20 min.
Cellular NanoBiT miniGi recruitment assay s: Chemokine-induced Gi recruitment to the chemokine receptor CCR1 was monitored using a nanoluciferase complementation -based assay (NanoBiT, Promega). 20 5 x 10^6 HEK293T cells were plated in 10 cm dishes and cultured for 24 h before transfection with vectors encoding for the human chemokine receptor CCR1 C-terminally fused with SmBiT and miniGi (mG, engineered GTPase domain of Gα subunit) N-terminally fused with LgBiT. 24 h after transfection cells were harvested, distributed into white 96 -well plates (5 × 10^4 cells per well) and incubated for 1 h at 37 °C with compound 23 at concentrations ranging from 10 nM to 100 µM. The endogenous chemokine ligand CCL5 (3 nM, for CCR1) was then added, and luminescence generated upon nanoluciferase complementation in the presence of coelenterazine H was measured with a Mithras LB940 luminometer (Berthold Technologies) for 20 min. […]
as §2, §3, §4

Compound	Kd (CCR2)	Kd (CCR1)	EC50 [1]	EC50 [2]	EC50 [3]
CN(C)c1ccc2c(-c3cc(C(=O)NCc4cn(CCCC(=O)C5=C(O)C(=O)N(c6ccc(Cl)cc6F)C5C5CCCCC5)nn4)ccc3C(=O)[O-])c3ccc(=[N+](C)C)cc-3oc2c1 (stereo not shown) [compound 8]	2260 nM	11300 ± 800 nM	–	–	–
CN(C)c1ccc2c(-c3cc(C(=O)NCc4cn(CCCC(=O)C5=C(O)C(=O)N(c6ccc(Br)cc6F)C5C5CCCCC5)nn4)ccc3C(=O)[O-])c3ccc(=[N+](C)C)cc-3oc2c1 (stereo not shown) [compound 9]	2270 nM	14900 ± 2100 nM	–	–	–
CCL2: endogenous chemokine ligand, CCR2 agonist	–	–	7.43 nM	–	–
CCL5: endogenous chemokine ligand, CCR1 agonist	–	–	–	1.01 nM	2.93 nM
